≈ marks a conversion by molar mass, not a printed value. Read-outs that look alike come from different tables or passages of the source.
What was measured:
Bacillus subtilis = assay: Minimal Inhibitory Concentration (MIC), Table I; format: cell-based
Description: (§1) In general, the novel pseudotrisaccharides of this invention (I) can be used to treat diverse types of susceptible microbial, viral, helmintic and protozoal infestations. These anthelmintic, antiprotozoal, antimicrobial and antiviral activities can readily be determined by standard in vivo and in vitro tests well known to the microbiologist and virologist. Of the compounds of this invention it can generally be stated that those 6'--NH2 or 6'--NHR4 compounds having a 2'--OH group are preferred for their activity against bacteria, trichomonas, amoeba, and helminths; those 2'--HN2 or 2'--NHR4 compounds having a 6'--OH group are preferred for their activity against bacteria, trichomona, amoeba, and helminths; those 2'--NH2 or 2'--NHR4 compounds having a 6'--NH2 or a 6'--NHR4 group are preferred for their antibacterial activity while those 2'--OH or 6'--OH compounds are preferred for their antitrichomonal activity.
(§2) Typical activity is illustrated by the following tables showing antibacterial and antiprotozoal activities.
(§3) Minimal Inhibitory Concentration (MIC) (mcg/ml)

[1] = tested on: Escherichia coli (G resistant); assay: Minimal Inhibitory Concentration (MIC), Table I; format: cell-based; settings: garamycin resistant
Description: as §1, §2, §3

[2] = tested on: Escherichia coli (N,K resistant); assay: Minimal Inhibitory Concentration (MIC), Table I; format: cell-based; settings: neomycin, kanamycin resistant
Description: as §1, §2, §3

[3] = tested on: Escherichia coli (T resistant); assay: Minimal Inhibitory Concentration (MIC), Table I; format: cell-based; settings: tobramycin resistant
Description: as §1, §2, §3

Escherichia coli = assay: Minimal Inhibitory Concentration (MIC), Table I; format: cell-based
Description: as §1, §2, §3

[4] = tested on: Klebsiella pneumoniae (G-resistant); assay: Minimal Inhibitory Concentration (MIC), Table I; format: cell-based; settings: garamycin resistant
Description: as §1, §2, §3

[5] = tested on: Klebsiella pneumoniae (N,M resistant); assay: Minimal Inhibitory Concentration (MIC), Table I; format: cell-based
Description: as §1, §2, §3

Proteus mirabilis = assay: Minimal Inhibitory Concentration (MIC), Table I; format: cell-based
Description: as §1, §2, §3

Providence = assay: Minimal Inhibitory Concentration (MIC), Table I; format: cell-based
Description: as §1, §2, §3

[6] = tested on: Pseudomonas aeruginosa (G resistant); assay: Minimal Inhibitory Concentration (MIC), Table I; format: cell-based; settings: garamycin resistant
Description: as §1, §2, §3

Serratia marcessans = assay: Minimal Inhibitory Concentration (MIC), Table I; format: cell-based
Description: as §1, §2, §3

Staphylococcus aureus = assay: Minimal Inhibitory Concentration (MIC), Table I; format: cell-based
Description: as §1, §2, §3

Streptococcus pyogenes C = assay: Minimal Inhibitory Concentration (MIC), Table I; format: cell-based
Description: as §1, §2, §3

Trichomonas Vaginalis = assay: In vitro Activity Against Trichomonas Vaginalis, Table II; format: cell-based; settings: for IC99: read-out: Minimal 99% suppression level; for MBC: read-out: Minimal Cidal Level
Description: as §1, §2
In vitro Activity Against Trichomonas Vaginalis
STS - Simplified Tripticase Serum Medium, Baltimore Biological
Laboratories, Baltimore, Maryland.

Salmonella typhimurium = assay: Minimal Inhibitory Concentration (MIC), Table I; format: cell-based; settings: Salmonella enterica
Description: as §1, §2, §3

Pseudomonas aeruginosa = assay: Minimal Inhibitory Concentration (MIC), Table I; format: cell-based
Description: as §1, §2, §3

pKa of garamine = format: physicochemical
Method: i. 1,3,3'-Tri-N-carbobenzoxygaramine (2.02 g.) was dissolved in methanol (100 ml.), and 10% palladium on carbon (1.0 g.) was added. The mixture was hydrogenated at 25° at 50 lbs/sq. in. for 16 hours, and the catalyst was filtered off, and washed with methanol. The filtrate was evaporated, and chromatographed on silica gel using the lower phase of a chloroform-methanol-concentrated ammonium hydroxide (2:1:1) system as the eluent. The fractions containing the garamine were concentrated in vacuo to small volume, and were then passed through Amberlite IR45 resin. The eluate was concentrated to small volume in vacuo, and the resulting solution was lyophilized to give garamine (750 mg.) (84%) as a colorless amorphous solid, m.p. 89°-99°, (Found: C, 48.31; H, 8.54; N, 12.87. C13 H27 N3 O6 requires: C, 48.60; H, 8.41; N, 13.08%), m/e 322 (M^+ +1), [α]D^26 + 135.4° (H2 O), pKa 8.5, .nu. max (nujol) 3300, 1060 cm.^-1, δ (D 2 O) 1.19 (3H, s, 4'--CH3), 2.51 (3H, s, 3'--NCH3), 2.57 (1H, d, J2',3' =10.5 Hz, H3'), 3.30 )1H, d, J5'a,5'e =12.5 Hz, H5'a), 3.79 (1H, dd, J2',3' =10.5 Hz, J1',2' =4 Hz, H2'), 4.03 (1H, d, J5'a,5'e =12.5 Hz, H5'e), 5.06 ppm. (1H, d, J1',2' =4 Hz, H1').

Row | SMILES | MIC (Bacillus subtilis) | MIC [1] | MIC [2] | MIC [3] | MIC (Escherichia coli) | MIC [4] | MIC [5] | MIC (Proteus mirabilis) | MIC (Providence) | MIC [6] | MIC (Serratia marcessans) | MIC (Staphylococcus aureus) | MIC (Streptococcus pyogenes C) | IC99 (Trichomonas Vaginalis; 24 hr.) | MBC (Trichomonas Vaginalis; 24 hr.) | IC99 (Trichomonas Vaginalis; 48 hr.) | MBC (Trichomonas Vaginalis; 48 hr.) | MIC (Salmonella typhimurium) | MIC (Pseudomonas aeruginosa) | pKa (pKa of garamine)
1 | CN[C@@H]1[C@@H](O)[C@@H](O[C@@H]2[C@@H](O)[C@H](O[C@H]3O[C@H](CO)[C@@H](O)[C@H](O)[C@H]3N)[C@@H](N)C[C@H]2N)OC[C@]1(C)O (stereo in doubt) [Gentamicin X2] | 0.08 µg/mL (≈ 0.166 µM) | > 25 µg/mL | > 25 µg/mL | > 25 µg/mL | 0.8 to 3 µg/mL (≈ 1.66 to 6.22 µM) | > 25 µg/mL | > 25 µg/mL | 3 µg/mL (≈ 6.22 µM) | > 25 µg/mL | > 25 µg/mL | > 25 µg/mL | 0.3 to 7.5 µg/mL (≈ 0.622 to 15.5 µM) | 1 to 17.5 µg/mL (≈ 2.07 to 36.3 µM) | 10 µg/mL | 10 µg/mL (≈ 20.7 µM) | < 10 µg/mL | 10 µg/mL (≈ 20.7 µM) | – | – | –
2 | CCN[C@H]1[C@@H](O[C@H]2[C@H](O)[C@@H](O[C@H]3OC[C@](C)(O)[C@H](NC)[C@H]3O)[C@H](N)C[C@@H]2N)O[C@H](CO)[C@@H](O)[C@@H]1O [2'-N-Ethylgentamicin X2] | 3 µg/mL (≈ 5.88 µM) | – | > 25 µg/mL | > 25 µg/mL | – | > 25 µg/mL | > 25 µg/mL | > 25 µg/mL | > 25 µg/mL | > 25 µg/mL | > 25 µg/mL | 3 to 7.5 µg/mL (≈ 5.88 to 14.7 µM) | – | < 10 µg/mL | 10 µg/mL (≈ 19.6 µM) | < 2.5 µg/mL | 2.5 µg/mL (≈ 4.9 µM) | 3 µg/mL (≈ 5.88 µM) | – | –
3 | CCN[C@@H]1C[C@H](O)[C@@H](CO)O[C@@H]1O[C@H]1[C@H](O)[C@@H](O[C@H]2OC[C@](C)(O)[C@H](NC)[C@H]2O)[C@H](N)C[C@@H]1N [3'-Deoxy-2'-N-ethylgentamicin X2] | > 25 µg/mL | > 25 µg/mL | 17.5 µg/mL (≈ 35.4 µM) | 3 µg/mL (≈ 6.07 µM) | – | > 25 µg/mL | 3 to 7.5 µg/mL (≈ 6.07 to 15.2 µM) | > 25 µg/mL | > 25 µg/mL | > 25 µg/mL | 3 µg/mL (≈ 6.07 µM) | – | > 25 µg/mL | < 2.5 µg/mL | < 2.5 µg/mL | < 2.5 µg/mL | < 2.5 µg/mL | – | – | –
4 | CNC[C@H]1O[C@H](O[C@H]2[C@H](O)[C@@H](O[C@H]3OC[C@](C)(O)[C@H](NC)[C@H]3O)[C@H](N)C[C@@H]2N)[C@H](O)C[C@@H]1O [3'-Deoxy-6'-N-methylgentamicin B] | < 0.1 µg/mL | – | 0.75 to 17.5 µg/mL (≈ 1.56 to 36.4 µM) | > 25 µg/mL | 0.1 to 0.75 µg/mL (≈ 0.208 to 1.56 µM) | > 25 µg/mL | 0.3 to 0.75 µg/mL (≈ 0.624 to 1.56 µM) | 0.75 to 3 µg/mL (≈ 1.56 to 6.24 µM) | 3 µg/mL (≈ 6.24 µM) | – | 3 µg/mL (≈ 6.24 µM) | 0.1 to 0.3 µg/mL (≈ 0.208 to 0.624 µM) | 0.1 to 17.5 µg/mL (≈ 0.208 to 36.4 µM) | – | – | – | – | – | 0.1 to 3 µg/mL (≈ 0.208 to 6.24 µM) | –
5 | CN[C@@H]1[C@@H](O)[C@@H](O[C@@H]2[C@@H](O)[C@H](O[C@H]3O[C@H](CO)[C@@H](O)C[C@H]3N)[C@@H](N)C[C@H]2N)OC[C@]1(C)O [3'-Deoxygentamicin X2] | 0.03 µg/mL (≈ 0.0643 µM) | > 25 µg/mL | 3 to 7.5 µg/mL (≈ 6.43 to 16.1 µM) | 17.5 µg/mL (≈ 37.5 µM) | 3 to 7.5 µg/mL (≈ 6.43 to 16.1 µM) | > 25 µg/mL | 0.8 to 3 µg/mL (≈ 1.71 to 6.43 µM) | 7.5 µg/mL (≈ 16.1 µM) | > 25 µg/mL | > 25 µg/mL | 0.8 µg/mL (≈ 1.71 µM) | 0.5 to 7.5 µg/mL (≈ 1.07 to 16.1 µM) | – | 10 µg/mL | 10 µg/mL (≈ 21.4 µM) | < 10 µg/mL | 10 µg/mL (≈ 21.4 µM) | 7.5 µg/mL (≈ 16.1 µM) | 3 to 7.5 µg/mL (≈ 6.43 to 16.1 µM) | –
6 | CN[C@@H]1[C@@H](O)[C@@H](O[C@@H]2[C@@H](O)[C@H](O[C@H]3O[C@H](CN)[C@@H](O)C[C@H]3N)[C@@H](N)C[C@H]2N)OC[C@]1(C)O [3'-deoxy-JI-20A, O-2,6-Diamino-2,3,6-trideoxy-α-D-glucopyranosyl-(1→4)-garamine] | < 0.05 µg/mL | > 25 µg/mL | 0.08 to 0.8 µg/mL (≈ 0.172 to 1.72 µM) | 17.5 µg/mL (≈ 37.6 µM) | 0.08 µg/mL (≈ 0.172 µM) | – | 0.08 µg/mL (≈ 0.172 µM) | 0.3 µg/mL (≈ 0.644 µM) | > 25 µg/mL | > 25 µg/mL | 3 µg/mL (≈ 6.44 µM) | 0.08 to 0.3 µg/mL (≈ 0.172 to 0.644 µM) | 0.8 to 7.5 µg/mL (≈ 1.72 to 16.1 µM) | – | – | – | – | 0.75 µg/mL (≈ 1.61 µM) | 0.08 to 0.8 µg/mL (≈ 0.172 to 1.72 µM) | –
7 | CN[C@@H]1[C@@H](O)[C@@H](O[C@@H]2[C@@H](O)[C@H](O)[C@@H](N)C[C@H]2N)OC[C@]1(C)O [Garamine, 0-3-deoxy-4-C-methyl-3-(methylamino)-β-L-arabinopyranosyl-(1→6)-2-deoxy-D-streptamine] | – | – | – | – | – | – | – | – | – | – | – | – | – | – | – | – | – | – | – | 8.5
8 | CN[C@@H]1[C@@H](O)[C@@H](O[C@@H]2[C@@H](O)[C@H](O[C@H]3O[C@H](CN)[C@@H](O)[C@H](O)[C@H]3N)[C@@H](N)C[C@H]2N)OC[C@]1(C)O [JI-20A] | < 0.05 µg/mL | > 25 µg/mL | – | > 25 µg/mL | 0.3 µg/mL (≈ 0.623 µM) | > 25 µg/mL | > 25 µg/mL | 7.5 µg/mL (≈ 15.6 µM) | > 25 µg/mL | > 25 µg/mL | > 25 µg/mL | 0.3 µg/mL (≈ 0.623 µM) | 17.5 µg/mL (≈ 36.3 µM) | – | – | – | – | 0.3 µg/mL (≈ 0.623 µM) | 7.5 to 17.5 µg/mL (≈ 15.6 to 36.3 µM) | –
9 | CN[C@@H]1[C@@H](O)[C@@H](O[C@@H]2[C@@H](O)[C@H](O[C@H]3O[C@H](CO)[C@@H](O)[C@H](O)[C@H]3O)[C@@H](N)C[C@H]2N)OC[C@]1(C)O [O-α-D-Glucopyranosyl-(1→4)-garamine] | – | – | – | – | – | – | – | – | – | – | – | – | – | 10 µg/mL | 25 µg/mL (≈ 51.7 µM) | < 10 µg/mL | 10 µg/mL (≈ 20.7 µM) | – | – | –
